Key:
[1] = system: T1, P. falciparum proteasome, β1 (caspase-like) activity; conditions: live trophozoites treated 3 h, then lysed; K13 C580Y background; effect may be indirect
T1 construct: gene beta1

[2] = target: T2, P. falciparum proteasome, β5 (chymotrypsin-like) activity (Plasmodium falciparum, UniProt Q8IJT1); experiment: fluorogenic Suc-LLVY-AMC cleavage in lysate of drug-treated parasites; type: cell-based; conditions: read-out: % inhibition at 700 nM
T2 construct: gene PF3D7_1011400; native proteasome in NP-40 lysate of 26-30 hpi trophozoites; not purified; 20S core of four heptameric rings; with Proteasome subunit beta type-7 (beta2 catalytic subunit); Proteasome subunit beta type-6 (beta1 catalytic subunit)

[3] = target: T3, P. falciparum proteasome, β2 (trypsin-like) activity (Plasmodium falciparum, UniProt Q8I6T3); experiment: fluorogenic Ac-RLR-AMC cleavage in lysate of drug-treated parasites; type: cell-based; conditions: read-out: % inhibition at 700 nM
T3 construct: gene PF3D7_1328100; native proteasome in NP-40 lysate of 26-30 hpi trophozoites; not purified; 20S core of four heptameric rings; with Proteasome subunit beta type-5; Proteasome subunit beta type-6 (beta1 catalytic subunit)

[4] = target: T4, P. falciparum proteasome, β1 (caspase-like) activity (Plasmodium falciparum, UniProt Q8I0U7); experiment: fluorogenic Ac-nLPnLD-AMC cleavage in lysate of drug-treated parasites; type: cell-based; conditions: read-out: % inhibition at 700 nM
T4 construct: gene PF3D7_0931800; native proteasome in NP-40 lysate of 26-30 hpi trophozoites; not purified; 20S core of four heptameric rings; with Proteasome subunit beta type-7 (beta2 catalytic subunit); Proteasome subunit beta type-5

[5] = system: T5, P. falciparum proteasome, β5 (chymotrypsin-like) activity; conditions: live trophozoites treated 3 h, then lysed; K13 C580Y background; effect may be indirect
T5 construct: gene beta5

T2 sequence (Q8IJT1 entry or part of it): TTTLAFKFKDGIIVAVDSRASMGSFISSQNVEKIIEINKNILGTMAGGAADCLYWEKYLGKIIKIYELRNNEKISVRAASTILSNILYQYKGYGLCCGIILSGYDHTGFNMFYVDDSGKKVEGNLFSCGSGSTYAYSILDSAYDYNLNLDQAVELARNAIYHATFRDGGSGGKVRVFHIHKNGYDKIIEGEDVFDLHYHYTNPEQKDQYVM
T4 sequence (Q8I0U7 entry or part of it): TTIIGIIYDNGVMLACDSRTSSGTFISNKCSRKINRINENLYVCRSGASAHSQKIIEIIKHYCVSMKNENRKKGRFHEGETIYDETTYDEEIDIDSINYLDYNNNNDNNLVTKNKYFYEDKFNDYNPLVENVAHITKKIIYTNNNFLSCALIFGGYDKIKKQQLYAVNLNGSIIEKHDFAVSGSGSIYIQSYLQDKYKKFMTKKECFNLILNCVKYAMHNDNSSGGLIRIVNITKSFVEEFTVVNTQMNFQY
T3 sequence (Q8I6T3 entry or part of it): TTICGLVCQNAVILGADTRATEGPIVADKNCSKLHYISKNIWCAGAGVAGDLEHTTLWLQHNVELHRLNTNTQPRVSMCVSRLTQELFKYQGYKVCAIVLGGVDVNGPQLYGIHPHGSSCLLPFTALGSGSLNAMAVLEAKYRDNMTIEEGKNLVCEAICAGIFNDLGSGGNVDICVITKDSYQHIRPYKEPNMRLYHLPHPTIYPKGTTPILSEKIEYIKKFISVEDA

Row | SMILES | % inhibition at 50 nM [1] [%] | inhibition at 0.7 µM [2] [%] | inhibition at 0.7 µM [3] [%] | inhibition at 0.7 µM [4] [%] | % inhibition at 3 μM [5] [%]
1 | C[C@@H]1CC[C@H]2[C@@H](C)C(O)O[C@@H]3O[C@@]4(C)CC[C@@H]1[C@]32OO4 (some centres unmarked) [DHA] | 49 | ~60 | ~40 | ~40 | 
2 | c1cc(C2CCC3(CC2)OOC2(O3)C3CC4CC(C3)CC2C4)ccc1OCCN1CCOCC1 (centres unmarked) [OZ439] |  |  |  |  | 52
